Results on one molecule are retold here after paper PMC10889811, “Potential Candidate Molecule of Photosystem II Inhibitor Herbicide—Brassicanate A Sulfoxide” (International Journal of Molecular Sciences, 2024).

The target in this assay is T1, photosystem II D1 protein (PSBD1; psbA).
T1 construct: gene psbA1; psbA cloned BamHI/HindIII into pFastBac1; expressed in Sf9 insect cells; His-tagged (kept, captured on NTA sensor), Ni column from sonicated pellet supernatant; recombinant plasmid printed as 5238 bp, small for a full-length psbA insert; isolated D1 without other PSII subunits or cofactors; PDB 7ZCL is the docking model only
As to the kind of experiment: biolayer interferometry (Octet R8, NTA sensor). The note with it: PBS, 5% DMSO; analyte 1 mM; His-tagged protein immobilised on NTA sensor; read-out: affinity constant. Type of assay: binding.

Molecules are shown by their SMILES.

`COC(=O)c1c([S+](C)[O-])[nH]c2ccccc12` (stereo not shown) [brassicanate A sulfoxide]: the Kd turned out to be 2690 µM.
